Starred links: 1 amine or outer side, 2 acyl side, 3 side chain; linkers in the order of their positions; H or OH if unused. Non-standard residues stand in square brackets, D forms with d. Residues, ends and D or L forms follow the SMILES beside them. ξ: configuration not given here. X2 = CN(C(C(=O)[*:2])C(O)c1ccccc1)[*:1]; X4 = CC(C(=O)O)C(C(=O)[*:2])N(C)[*:1]; ξNMeVal(3-OH) = CNC(C(=O)O)C(C)(C)O; X3 = C=C(C)C(C(=O)[*:2])N(C)[*:1]; X5 = CC(CO)C(C(=O)[*:2])N(C)[*:1]; X6 = CC(C)=C(C(=O)[*:2])N(C)[*:1]; NMeF = CN[CH](Cc1ccccc1)C(=O)O; X1 = CCC(C)C(O[*:1])C(=O)[*:2]; NMeV = CN[CH](C(=O)O)C(C)C; Hiv = CC(C)[CH](O)C(=O)O
Tests used:
Experiment in all cases: MIC by agar dilution method, casitone agar
Format in all cases: cell-based
Conditions in all cases: Table 5
[1] = test system: Candida glabrata TIMM 1062
Method: (§1) The minimum inhibitory concentration (MIC) of each antibiotic against various fungi was determined by the agar dilution method using casitone agar medium (2.0% glucose, 0.9% bacto-casitone, 1.0% yeast extract, 0.1% KH2 PO4, 0.1% Na2 HPO4, 1.0% sodium citrate, 2.0% agar: concentrations are all by w/v).
(§2) Each minimum growth inhibitory concentration was determined after culturing at 27° C. for 4 days.

[2] = test system: Cryptococcus neoformans TIMM 0354
Method: as §1, §2

[3] = test system: Candida albicans TIMM 0136
Method: (§3) The antibiotics R106 of the present invention are active against various fungi including pathogenic fungi. The minimum inhibitory concentration (MIC) of each antibiotic against various fungi was determined by the agar dilution method using casitone agar medium (2.0% glucose, 0.9% bacto-casitone, 1.0% yeast extract, 0.1% KH2 PO4, 0.1% Na2 HPO4, 1.0% sodium citrate, 2.0% agar: concentrations are all by w/v).

[4] = test system: Candida albicans TIMM 0171
Method: as §3

[5] = test system: Candida albicans TIMM 1768
Method: as §3

Candida kefyr TIMM 0301 = test system: Candida kefyr TIMM 0301
Method: as §3

minimum inhibitory concentration (MIC) [1] | minimum inhibitory concentration (MIC) [2] | minimum inhibitory concentration (MIC) [3] | minimum inhibitory concentration (MIC) [4] | minimum inhibitory concentration (MIC) [5] | minimum inhibitory concentration (MIC) (Candida kefyr TIMM 0301) | Compound
0.20 | 1.56 | 0.10 | 0.10 | 1.56 | 0.20 | CCC(C)C1OC(=O)C(C(C)(C)O)N(C)C(=O)C(CC(C)C)NC(=O)C(C(C)C)N(C)C(=O)C(C(C)C)NC(=O)C2CCCN2C(=O)C(Cc2ccccc2)N(C)C(=O)C(Cc2ccccc2)NC(=O)C(C(C)C)N(C)C1=O (stereo not drawn) [Compound 3] (cyclo([ξNMeVal(3-OH)][X1][NMeV]F[NMeF]PV[NMeV]L); configuration not given here)
1.56 | 25 | 0.20 | 0.10 | 0.39 | 0.78 | CCC(C)C1NC(=O)C2CCCN2C(=O)C(Cc2ccccc2)N(C)C(=O)C(Cc2ccccc2)NC(=O)C(C(C)C)N(C)C(=O)C(C(C)CC)OC(=O)C(C(C)CO)N(C)C(=O)C(CC(C)C)NC(=O)C(C(C)C)N(C)C1=O (stereo not drawn) [Compound 4] (cyclo([X5][X1][NMeV]F[NMeF]PI[NMeV]L); configuration not given here)
3.12 | 25 | 0.78 | 0.78 | 12.5 | 3.12 | CCC(C)C1NC(=O)C2CCCN2C(=O)C(Cc2ccccc2)N(C)C(=O)C(Cc2ccccc2)NC(=O)C(C(C)C)N(C)C(=O)C(C(C)CC)OC(=O)C(C(C)C(=O)O)N(C)C(=O)C(CC(C)C)NC(=O)C(C(C)C)N(C)C1=O (stereo not drawn) [Compound 10] (cyclo([X4][X1][NMeV]F[NMeF]PI[NMeV]L); configuration not given here)
> 25 | > 25 | 1.56 | 1.56 | 1.56 | 6.25 | CCC(C)C1NC(=O)C2CCCN2C(=O)C(Cc2ccccc2)N(C)C(=O)C(Cc2ccccc2)NC(=O)C(C(C)C)N(C)C(=O)C(C(C)C)OC(=O)C(C(C)C)N(C)C(=O)C(CC(C)C)NC(=O)C(C(C)C)N(C)C1=O (stereo not drawn) [Compound 11] (cyclo(F[NMeF]PI[NMeV]L[NMeV][Hiv][NMeV]); configuration not given here)
> 25 | > 25 | 6.25 | 6.25 | 25 | 12.5 | CCC(C)C1OC(=O)C(C(C)C)N(C)C(=O)C(CC(C)C)NC(=O)C(C(C)C)N(C)C(=O)C(C(C)C)NC(=O)C2CCCN2C(=O)C(Cc2ccccc2)N(C)C(=O)C(Cc2ccccc2)NC(=O)C(C(C)C)N(C)C1=O (stereo not drawn) [Compound 12] (cyclo([X1][NMeV]F[NMeF]PV[NMeV]L[NMeV]); configuration not given here)

Second part, the compound before the results:

Compound | minimum inhibitory concentration (MIC) [1] | minimum inhibitory concentration (MIC) [2] | minimum inhibitory concentration (MIC) [3] | minimum inhibitory concentration (MIC) [4] | minimum inhibitory concentration (MIC) [5] | minimum inhibitory concentration (MIC) (Candida kefyr TIMM 0301)
CCC(C)C1NC(=O)C2CCCN2C(=O)C(Cc2ccccc2)N(C)C(=O)C(Cc2ccccc2)NC(=O)C(C(C)C)N(C)C(=O)C(C(C)CC)OC(=O)C(C(C)(C)O)N(C)C(=O)C(CC(C)C)NC(=O)C(C(C)C)NC1=O (stereo not drawn) [Compound 6] (cyclo([ξNMeVal(3-OH)][X1][NMeV]F[NMeF]PIVL); configuration not given here) | 1.56 | 25 | 0.78 | 0.39 | 0.39 | 0.39
CCC(C)C1NC(=O)C2CCCN2C(=O)C(Cc2ccccc2)N(C)C(=O)C(Cc2ccccc2)NC(=O)C(C(C)C)N(C)C(=O)C(C(C)CC)OC(=O)C(C(C)C)NC(=O)C(CC(C)C)NC(=O)C(C(C)C)N(C)C1=O (stereo not drawn) [Compound 8] (cyclo([X1][NMeV]F[NMeF]PI[NMeV]LV); configuration not given here) | > 25 | > 25 | 1.56 | 1.56 | 12.5 | > 25
CCC(C)C1NC(=O)C2CCCN2C(=O)C(Cc2ccccc2)NC(=O)C(Cc2ccccc2)NC(=O)C(C(C)C)N(C)C(=O)C(C(C)CC)OC(=O)C(C(C)C)N(C)C(=O)C(CC(C)C)NC(=O)C(C(C)C)N(C)C1=O (stereo not drawn) [Compound 13] (cyclo([X1][NMeV]FFPI[NMeV]L[NMeV]); configuration not given here) | > 25 | > 25 | 6.25 | 12.5 | 12.5 | 25
C=C(C)C1C(=O)OC(C(C)CC)C(=O)N(C)C(C(C)C)C(=O)NC(Cc2ccccc2)C(=O)N(C)C(Cc2ccccc2)C(=O)N2CCCC2C(=O)NC(C(C)CC)C(=O)N(C)C(C(C)C)C(=O)NC(CC(C)C)C(=O)N1C (stereo not drawn) [Compound 14] (cyclo([X3][X1][NMeV]F[NMeF]PI[NMeV]L); configuration not given here) | 12.5 | > 25 | 1.56 | 1.56 | 12.5 | 6.25
CCC(C)C1NC(=O)C2CCCN2C(=O)C(Cc2ccccc2)N(C)C(=O)C(Cc2ccccc2)NC(=O)C(C(C)C)N(C)C(=O)C(C(C)CC)OC(=O)C(C(O)c2ccccc2)N(C)C(=O)C(CC(C)C)NC(=O)C(C(C)C)N(C)C1=O (stereo not drawn) [Compound 15] (cyclo([X2][X1][NMeV]F[NMeF]PI[NMeV]L); configuration not given here) | > 25 | 25 | 12.5 | 25 | 25 | > 25
CCC(C)C1NC(=O)C2CCCN2C(=O)C(Cc2ccccc2)N(C)C(=O)C(Cc2ccccc2)NC(=O)C(C(C)C)N(C)C(=O)C(C(C)CC)OC(=O)C(C(C)C)N(C)C(=O)C(CC(C)C)NC(=O)C(C(C)C)NC1=O (stereo not drawn) [Compound 16] (cyclo([X1][NMeV]F[NMeF]PIVL[NMeV]); configuration not given here) | > 25 | > 25 | 3.12 | 1.56 | 25 | 3.12
CCC(C)C1NC(=O)C2CCCN2C(=O)C(Cc2ccccc2)N(C)C(=O)C(Cc2ccccc2)NC(=O)C(C(C)C)N(C)C(=O)C(C(C)CC)OC(=O)C(Cc2ccccc2)N(C)C(=O)C(CC(C)C)NC(=O)C(C(C)C)N(C)C1=O (stereo not drawn) [Compound 17] (cyclo([X1][NMeV]F[NMeF]PI[NMeV]L[NMeF]); configuration not given here) | > 25 | > 25 | 12.5 | 25 | > 25 | > 25
CCC(C)C1NC(=O)C2CCCN2C(=O)C(Cc2ccccc2)N(C)C(=O)C(Cc2ccccc2)NC(=O)C(C(C)C)N(C)C(=O)C(C(C)CC)OC(=O)C(=C(C)C)N(C)C(=O)C(CC(C)C)NC(=O)C(C(C)C)N(C)C1=O (stereo not drawn) [Compound 18] (cyclo([X6][X1][NMeV]F[NMeF]PI[NMeV]L); configuration not given here) | > 25 | > 25 | 6.25 | 3.12 | 25 | 25

Reference: patent US5057493A, “Novel antibiotics R106” (priority 1988, dated 1991)
